Experimental data from publication PMC7071059, “Targeting Receptor Tyrosine Kinase VEGFR-2 in Hepatocellular Cancer: Rational Design, Synthesis and Biological Evaluation of 1,2-Disubstituted Benzimidazoles” (Molecules, 2020).

Legend:
HepG2 cell line = test: In vitro cytotoxic activity, Sulfo-Rhodamine-B (SRB) assay; format: cell-based, human; settings: Homo sapiens, HepG2, 48 h, SRB assay, 48 h; mean of three independent experiments; read-out: IC50 (μM) on HepG2 Cell Line
786-0 = test: NCI 60 one dose (10 μM) anticancer assay; format: cell-based; settings: Homo sapiens, 10 µM one dose, Renal Cancer, read-out: Growth Inhibition % 786-0
Procedure: (§1) Some of the synthesized compounds were selected by the NCI, Bethesda, MD, USA for evaluation of their anticancer activity. An in vitro one dose (10 μM) anticancer assay was conducted on a full NCI 60-cell line panel derived from 9 different cancer types. Table 2 presents the percent of growth inhibition of some cell lines. […] K-562 and MOLT-4 from leukemia, NCI-H522 from non-small cell lung cancer, HCT-116 from colon cancer, SK-MEL-5 and UACC-62 from melanoma, UO-31 from renal cancer, PC-3 from prostate cancer and HS 578T and T-47D from breast cancer are the most sensitive cell lines to the tested compounds. No growth inhibition was observed from the selected compounds against COLO205, HCC-2998, MALME-3M, SK-MEL-28, DU-145 and BT-549 cell lines. […] Against UO-31 from renal cancer and PC-3 from prostate cancer, it inhibited the growth of 44% and 58% of the cancer cells, respectively.

A549/ATTC = test: NCI 60 one dose (10 μM) anticancer assay; format: cell-based; settings: Homo sapiens, 10 µM one dose, Non-small cell lung Cancer, read-out: Growth Inhibition % A549/ATTC
Procedure: as §1

EKVX = test: NCI 60 one dose (10 μM) anticancer assay; format: cell-based; settings: Homo sapiens, 10 µM one dose, Non-small cell lung Cancer, read-out: Growth Inhibition % EKVX
Procedure: as §1

HCT-15 = test: NCI 60 one dose (10 μM) anticancer assay; format: cell-based; settings: Homo sapiens, 10 µM one dose, Colon Cancer, read-out: Growth Inhibition % HCT-15
Procedure: as §1

HL-60(TB) = test: NCI 60 one dose (10 μM) anticancer assay; format: cell-based; settings: Homo sapiens, 10 µM one dose, Leukemia, read-out: Growth Inhibition % HL-60(TB)
Procedure: as §1

HOP-62 = test: NCI 60 one dose (10 μM) anticancer assay; format: cell-based; settings: Homo sapiens, 10 µM one dose, Non-small cell lung Cancer, read-out: Growth Inhibition % HOP-62
Procedure: as §1

HS 578T = test: NCI 60 one dose (10 μM) anticancer assay; format: cell-based; settings: Homo sapiens, 10 µM one dose, Breast Cancer, read-out: Growth Inhibition % HS 578T
Procedure: as §1

K-562 = test: NCI 60 one dose (10 μM) anticancer assay; format: cell-based; settings: Homo sapiens, K562; 10 µM one dose; Leukemia; read-out: Growth Inhibition % K-562
Procedure: as §1

KM12 = test: NCI 60 one dose (10 μM) anticancer assay; format: cell-based; settings: Homo sapiens, 10 µM one dose, Colon Cancer, read-out: Growth Inhibition % KM12
Procedure: as §1

LOX IMVI = test: NCI 60 one dose (10 μM) anticancer assay; format: cell-based; settings: Homo sapiens, 10 µM one dose, Melanoma, read-out: Growth Inhibition % LOX IMVI
Procedure: as §1

MDA-MB-231/ATTC = test: NCI 60 one dose (10 μM) anticancer assay; format: cell-based; settings: Homo sapiens, 10 µM one dose, Breast Cancer, read-out: Growth Inhibition % MDA-MB-231/ATTC
Procedure: as §1

MDA-MB-435 = test: NCI 60 one dose (10 μM) anticancer assay; format: cell-based; settings: Homo sapiens, 10 µM one dose, Melanoma, read-out: Growth Inhibition % MDA-MB-435
Procedure: as §1

MDA-MB-468 = test: NCI 60 one dose (10 μM) anticancer assay; format: cell-based; settings: Homo sapiens, 10 µM one dose, Breast Cancer, read-out: Growth Inhibition % MDA-MB-468
Procedure: as §1

NCI-H226 = test: NCI 60 one dose (10 μM) anticancer assay; format: cell-based; settings: Homo sapiens, 10 µM one dose, Non-small cell lung Cancer, read-out: Growth Inhibition % NCI-H226
Procedure: as §1

NCI-H23 = test: NCI 60 one dose (10 μM) anticancer assay; format: cell-based; settings: Homo sapiens, 10 µM one dose, Non-small cell lung Cancer, read-out: Growth Inhibition % NCI-H23
Procedure: as §1

NCI-H522 = test: NCI 60 one dose (10 μM) anticancer assay; format: cell-based; settings: Homo sapiens, 10 µM one dose, Non-small cell lung Cancer, read-out: Growth Inhibition % NCI-H522
Procedure: as §1

NCI/ADR-RES = test: NCI 60 one dose (10 μM) anticancer assay; format: cell-based; settings: Homo sapiens, 10 µM one dose, Ovarian Cancer, read-out: Growth Inhibition % NCI/ADR-RES
Procedure: as §1

OVCAR-4 = test: NCI 60 one dose (10 μM) anticancer assay; format: cell-based; settings: Homo sapiens, 10 µM one dose, Ovarian Cancer, read-out: Growth Inhibition % OVCAR-4
Procedure: as §1

OVCAR-8 = test: NCI 60 one dose (10 μM) anticancer assay; format: cell-based; settings: Homo sapiens, 10 µM one dose, Ovarian Cancer, read-out: Growth Inhibition % OVCAR-8
Procedure: as §1

PC-3 = test: NCI 60 one dose (10 μM) anticancer assay; format: cell-based; settings: Homo sapiens, 10 µM one dose, Prostate Cancer, read-out: Growth Inhibition % PC-3
Procedure: as §1

SF-268 = test: NCI 60 one dose (10 μM) anticancer assay; format: cell-based; settings: Homo sapiens, 10 µM one dose, CNS Cancer, read-out: Growth Inhibition % SF-268
Procedure: as §1

SNB-19 = test: NCI 60 one dose (10 μM) anticancer assay; format: cell-based; settings: Homo sapiens, 10 µM one dose, CNS Cancer, read-out: Growth Inhibition % SNB-19
Procedure: as §1

SNB-75 = test: NCI 60 one dose (10 μM) anticancer assay; format: cell-based; settings: Homo sapiens, 10 µM one dose, CNS Cancer, read-out: Growth Inhibition % SNB-75
Procedure: as §1

SR = test: NCI 60 one dose (10 μM) anticancer assay; format: cell-based; settings: Homo sapiens, 10 µM one dose, Leukemia, read-out: Growth Inhibition % SR
Procedure: as §1

SW-620 = test: NCI 60 one dose (10 μM) anticancer assay; format: cell-based; settings: Homo sapiens, 10 µM one dose, Colon Cancer, read-out: Growth Inhibition % SW-620
Procedure: as §1

TK-10 = test: NCI 60 one dose (10 μM) anticancer assay; format: cell-based; settings: Homo sapiens, 10 µM one dose, Renal Cancer, read-out: Growth Inhibition % TK-10
Procedure: as §1

U251 = test: NCI 60 one dose (10 μM) anticancer assay; format: cell-based; settings: Homo sapiens, U-251; 10 µM one dose; CNS Cancer; read-out: Growth Inhibition % U251
Procedure: as §1

UO-31 = test: NCI 60 one dose (10 μM) anticancer assay; format: cell-based; settings: Homo sapiens, 10 µM one dose, Renal Cancer, read-out: Growth Inhibition % UO-31
Procedure: as §1

Compound	IC50 (HepG2 cell line) [µM]	inhibition at 10 µM (786-0) [%]	inhibition at 10 µM (A549/ATTC) [%]	inhibition at 10 µM (EKVX) [%]	inhibition at 10 µM (HCT-15) [%]	inhibition at 10 µM (HL-60(TB)) [%]	inhibition at 10 µM (HOP-62) [%]	inhibition at 10 µM (HS 578T) [%]	inhibition at 10 µM (K-562) [%]	inhibition at 10 µM (KM12) [%]	inhibition at 10 µM (LOX IMVI) [%]	inhibition at 10 µM (MDA-MB-231/ATTC) [%]	inhibition at 10 µM (MDA-MB-435) [%]	inhibition at 10 µM (MDA-MB-468) [%]	inhibition at 10 µM (NCI-H226) [%]	inhibition at 10 µM (NCI-H23) [%]	inhibition at 10 µM (NCI-H522) [%]	inhibition at 10 µM (NCI/ADR-RES) [%]	inhibition at 10 µM (OVCAR-8) [%]	inhibition at 10 µM (PC-3) [%]	further results
Cc1ccc(-c2nc3ccccc3n2CC(=O)N/N=C/c2cccc(OCc3ccccc3)c2)o1 [Compound 17b, (E)-N′-(3-(Benzyloxy)benzylidene)-2-(2-(5-methylfuran-2-yl)-1H-benzo[d]imidazol-1-yl)acetohydrazide]	10	26	42	43	35	50	15	25	54	23	23	25	21	20	25	14	28	29	26	46	inhibition at 10 µM (OVCAR-4): 21%; inhibition at 10 µM (SF-268): 37%; inhibition at 10 µM (SNB-19): 21%; inhibition at 10 µM (SNB-75): 39%; inhibition at 10 µM (SR): 25%; inhibition at 10 µM (SW-620): 13%; inhibition at 10 µM (TK-10): 10%; inhibition at 10 µM (U251): 36%; inhibition at 10 µM (UO-31): 57%; melting point: 180 to 182 °C
CC(C)c1nc2ccccc2n1CC(=O)N/N=C/c1ccc(OCc2ccccc2)cc1 [Compound 17c, (E)-N′-(4-(Benzyloxy)benzylidene)-2-(2-isopropyl-1H-benzo[d]imidazol-1-yl)acetohydrazide]	20.2	< 10	< 10	< 10	< 10	< 10	< 10	16	28	< 10	< 10	< 10	< 10	< 10	< 10	< 10	26	< 10	< 10	17	inhibition at 10 µM (SF-268): < 10%; inhibition at 10 µM (SNB-19): < 10%; inhibition at 10 µM (SNB-75): < 10%; inhibition at 10 µM (SR): < 10%; inhibition at 10 µM (SW-620): < 10%; inhibition at 10 µM (TK-10): < 10%; inhibition at 10 µM (U251): < 10%; inhibition at 10 µM (UO-31): 28%; melting point: 209 to 211 °C
Cc1ccc(-c2nc3ccccc3n2CC(=O)N/N=C/c2ccc(OCc3ccccc3)cc2)o1 [Compound 17d, (E)-N′-(4-(Benzyloxy)benzylidene)-2-(2-(5-methylfuran-2-yl)-1H-benzo[d]imidazol-1-yl)acetohydrazide]	15.6	< 10	23	21	25	19	17	32	41	< 10	17	18	< 10	< 10	< 10	< 10	27	< 10	20	29	inhibition at 10 µM (OVCAR-4): < 10%; inhibition at 10 µM (SF-268): 23%; inhibition at 10 µM (SNB-19): < 10%; inhibition at 10 µM (SNB-75): 20%; inhibition at 10 µM (SR): 16%; inhibition at 10 µM (SW-620): < 10%; inhibition at 10 µM (TK-10): < 10%; inhibition at 10 µM (U251): < 10%; inhibition at 10 µM (UO-31): 30%; melting point: 201 to 203 °C
